Data: patent US7348304B1, “Fragrance material” (priority 2004, dated 2008)
Where two headings read alike, the source gives them in different places.

Legend:
[1] = prior-art characterisation; cited from earlier work
subjects = test: Determination of approximate aqueous odor threshold (paired beakers, sniffing); assay type: in vivo; parameters: key: “X” means correct positive identification; “-” means unable to identify
Experimental: 2 mg of the compound of the invention according to Example I were dissolved in 1.0 ml ethanol and serial dilutions made in deionized water to give test solutions of the compound at concentrations of 100, 20, 4, and 1 ppb.
Pairs of loosely-covered beakers were presented to three subjects, one beaker containing deionized water and the other a test solution. The subjects were asked to identify the beaker containing the test solution by removing the covers and sniffing, with the following results (“X” means correct positive identification, “-” means unable to identify): […]

[2] = Assessment of stability of the compound (olfactory assessment of stored aqueous solution); assay type: physicochemical
Experimental: 50 ml of a 250-ppb aqueous solution of the compound of the invention according to Example I was held in a covered 100 ml glass weighing bottle for seven months. Environmental conditions were ambient room light (fluorescent and indirect sunlight during daytime; dark at night) and temperature (16-26° C.). The bottle was opened approximately bi-weekly, admitting fresh air and allowing olfactory assessment of the odor strength.

[3] = Odor character / fragrance assessment of the material and fractions

Q: For `CC(=O)/C=C/[C@@H]1C(C)=CCCC1(C)C` [(S)-alpha-ionone], which odor [1] is on record?
A: Its odor is “cedarwood, raspberry”.

Q: For `CC1CCC2C(C)(C)C3CC12CC1OC13C` (centres unmarked) [cedrene epoxide], which odor [1] is on record?
A: Its odor is “woody-amber-camphor”.

Q: With `CCC(=O)C1CCC=CCCC=CCCC1` (centres unmarked) [1-(4,8-cyclododecadienyl)-1-propanone] as the molecule, how does the odor [1] read?
A: Its odor is “cedarwood, amber, pepper”.

Q: For `CO[C@@]1(C)CC[C@@]23C[C@@H]1C(C)(C)[C@@H]2CC[C@H]3C` [methyl cedryl ether], which odor [1] is on record?
A: The odor was “woody-amber”.

Q: With `C[C@@H]1C(=O)C[C@@H]2[C@@H]3[C@H]1[C@@]2(C)CCCC3(C)C` [the compound of the invention, (1R,2S,7R,8R,9S)-2,6,6,9-tetramethyltricyclo[5.4.0.0^2,8]undecan-10-one] as the molecule, how does the “identification of the beaker containing the test solution” value (from here on “identification”) (subjects; 1 ppb in deionized water, Subject 3) read?
A: Its value is “X”.

Q: And the “identification” value (subjects; 4 ppb in deionized water, Subject 1)?
A: Its value is “X”.

Q: What about the “identification” value (subjects; 4 ppb in deionized water, Subject 3) of the same molecule?
A: Its value is “X”.

Q: And the “identification” value (subjects; 20 ppb in deionized water, Subject 1)?
A: The value was “X”.

Q: What about the “identification” value (subjects; 20 ppb in deionized water, Subject 3) of the same molecule?
A: Its value is “X”.

Q: What about the “identification” value (subjects; 100 ppb in deionized water, Subject 1) of the same molecule?
A: Its value is “X”.

Q: And the “identification” value (subjects; 100 ppb in deionized water, Subject 2)?
A: Its value is “X”.

Q: What about the “identification” value (subjects; 100 ppb in deionized water, Subject 3) of the same molecule?
A: The value was “X”.

Q: What about the “odor intensity after storage” value ([2]; 250-ppb aqueous solution, seven months, ambient room light, 16-26° C., opened approximately bi-weekly) of the same molecule?
A: The value was “No decrease in odor intensity”.

Q: What about the stability ([2]; action of light, oxygen, and moisture) of the same molecule?
A: Its stability is “stable against the action of light, oxygen, and moisture”.

Q: What about the odor character ([3]; listed as Example III) of the same molecule?
A: Its odor character is “Cedar, woody, cigar box, tobacco, slightly animal—civet. Long-lasting in dry-down”.

Q: What about the odor character ([3]; listed as The compound) of the same molecule?
A: The odor character was “intense, pleasant and characteristic cedar wood odor”.

Q: Which odor character [3] does the source give for `C[C@H]1C(=O)C[C@@H]2[C@@H]3[C@H]1[C@@]2(C)CCCC3(C)C` [The C-9 epimer, (1R,2S,7R,8R,9R)-2,6,6,9-tetramethyltricyclo-[5.4.0.0^2,8]undecan-10-one, reference compound] here?
A: Its odor character is “no distinctive or useful fragrance properties”.

Q: For `CC(=O)O[C@]1(C)CC[C@@]23C[C@@H]1C(C)(C)[C@@H]2CC[C@H]3C` [cedryl acetate], which odor [1] is on record?
A: The odor was “woody-vetiver”.

Q: Which odor [1] does the source give for `C=C(C[C@H](C)CO)[C@H]1CC=C(C)C1(C)C` [(−)-(1′R,2S)-2-methyl-4-(2′,2′,3′-trimethyl-3′-cyclopenten-1′-yl)-4-penten-1-ol] here?
A: The odor was “sandalwood; cedar”.

Q: Which odor [1] does the source give for `CC(=O)C1=C(C)[C@@H]2C[C@@]3(C1)[C@H](C)CC[C@H]3C2(C)C` [methyl cedryl ketone] here?
A: Its odor is “musk-woody”.
